Laboratory results published in ChEMBL document CHEMBL1145669, “Antihepatotoxic principles of Atractylodes rhizomes” (1983).

Legend:
Hepatocyte [1] = assay: Antihepatotoxic activity against galactosamine-induced cytotoxicity in rat hepatocytes assessed as GPT level at 1 mg/mL relative to control; assay type: functional
Hepatocyte [2] = assay: Antihepatotoxic activity against carbon tetrachloride-induced cytotoxicity in rat hepatocytes assessed as GPT level at 1 mg/mL relative to control; assay type: functional
Hepatocyte [3] = assay: Antihepatotoxic activity against galactosamine-induced cytotoxicity in rat hepatocytes assessed as GPT level at 0.1 mg/mL relative to control; assay type: functional
Hepatocyte [4] = assay: Antihepatotoxic activity against carbon tetrachloride-induced cytotoxicity in rat hepatocytes assessed as GPT level at 0.01 mg/mL relative to control; assay type: functional
Hepatocyte [5] = assay: Antihepatotoxic activity against galactosamine-induced cytotoxicity in rat hepatocytes assessed as GPT level at 0.01 mg/mL relative to control; assay type: functional
[6] = target: T1, Alanine aminotransferase 1 (Rattus norvegicus) (UniProt P25409); assay: Effect on GPT in rat hepatocytes relative to control; assay type: cell-based; details: Hepatocyte
T1 sequence (whole entry): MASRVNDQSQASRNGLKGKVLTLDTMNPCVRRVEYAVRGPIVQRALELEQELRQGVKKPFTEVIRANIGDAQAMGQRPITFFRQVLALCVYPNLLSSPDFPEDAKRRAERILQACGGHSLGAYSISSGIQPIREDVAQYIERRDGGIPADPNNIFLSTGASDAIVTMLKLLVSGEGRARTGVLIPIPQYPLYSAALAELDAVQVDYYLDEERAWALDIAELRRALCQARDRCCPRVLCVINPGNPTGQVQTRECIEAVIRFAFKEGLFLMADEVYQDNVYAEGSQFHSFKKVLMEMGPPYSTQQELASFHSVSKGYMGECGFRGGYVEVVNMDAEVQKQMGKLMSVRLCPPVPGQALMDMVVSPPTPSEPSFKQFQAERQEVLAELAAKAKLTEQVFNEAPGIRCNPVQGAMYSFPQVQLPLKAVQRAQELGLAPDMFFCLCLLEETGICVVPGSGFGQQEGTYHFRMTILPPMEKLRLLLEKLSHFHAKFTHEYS

Hepatocyte [7] = assay: Antihepatotoxic activity against carbon tetrachloride-induced cytotoxicity in rat hepatocytes assessed as GPT level at 0.1 mg/mL relative to control; assay type: functional

Row | SMILES | Activity (Hepatocyte [1]) [%] | Activity (Hepatocyte [2]) [%] | Activity (Hepatocyte [3]) [%] | Activity (Hepatocyte [4]) [%] | Activity (Hepatocyte [5]) [%] | Activity [6] [%] | Activity (Hepatocyte [7]) [%]
1 | C[C@H]1CCC[C@]2(C)CC(=O)[C@@H](C(C)(C)O)C[C@@H]12 | 81 | 71 |  |  |  |  | 
2 | C[C@H]1CCC[C@]2(C)CC(O)[C@@H](C(C)(C)O)C[C@@H]12 (stereo partly drawn) | 82 | 44 |  |  |  |  | 
3 | C=C1CCC[C@]2(C)C[C@]3(O)OC(=O)C(C)=C3C[C@@H]12 [ATRACTYLENOLIDE III] | 97 | 103 |  |  |  |  | 
4 | C=C1CCC[C@]2(C)C[C@@H]3OC(=O)C(C)=C3C[C@@H]12 [ATRACTYLENOLIDE II] | 94 | 74 |  |  |  |  | 
5 | C=C1CCC[C@]2(C)C=C3OC(=O)C(C)=C3C[C@@H]12 [ATRACTYLENOLIDE I] | 107 | 68 |  |  |  |  | 
6 | C=C1CCC[C@]2(C)Cc3occ(C)c3C[C@@H]12 [ATRACTYLON] | 84 | 25 | 92 | 67 | 99 | 106 | 53
7 | C=C1CCC[C@]2(C)CC[C@@H](C(C)(C)O)C[C@@H]12 [BETA-EUDESMOL] | 79 | 53 | 94 | 83 | 104 | 106 | 70
8 | C[C@H]1CCC[C@]2(C)CC[C@@H](C(C)(C)O)C[C@H]12 [DIHYDROEUDESMOL] | 83 | 58 |  |  |  |  | 
9 | CC1CCC[C@H](C)[C@@]12CC[C@@H](C(C)(C)O)C2 (stereo partly drawn) [DIHYDROHINESOL] | 35 | 67 |  |  |  |  | 
10 | OCc1ccco1 [FURFURYL ALCOHOL] |  | 90 |  | 102 |  |  | 101
11 | CC1=CCC[C@H](C)[C@@]12CC[C@@H](C(C)(C)O)C2 [HINESOL] | 73 | 31 | 99 | 79 | 101 | 105 | 62
